Legend:
ER-α = target: T1, ER-α (Homo sapiens, UniProt P03372); assay: Breast Cancer Cell ER-α In Cell Western Assay (SP1); format: cell-based; conditions: MCF-7 cells, 4 or 24 hr post compound addition, SP1 antibody; for Emax: MCF7, read-out: ER-α In Cell Western Assay (SP1) Max Response; for DC50: read-out: ER-α In Cell Western Assay (SP1) IC50
T1 construct: endogenous in cells; host or cells: MCF-7
T1 sequence (P03372 1-595): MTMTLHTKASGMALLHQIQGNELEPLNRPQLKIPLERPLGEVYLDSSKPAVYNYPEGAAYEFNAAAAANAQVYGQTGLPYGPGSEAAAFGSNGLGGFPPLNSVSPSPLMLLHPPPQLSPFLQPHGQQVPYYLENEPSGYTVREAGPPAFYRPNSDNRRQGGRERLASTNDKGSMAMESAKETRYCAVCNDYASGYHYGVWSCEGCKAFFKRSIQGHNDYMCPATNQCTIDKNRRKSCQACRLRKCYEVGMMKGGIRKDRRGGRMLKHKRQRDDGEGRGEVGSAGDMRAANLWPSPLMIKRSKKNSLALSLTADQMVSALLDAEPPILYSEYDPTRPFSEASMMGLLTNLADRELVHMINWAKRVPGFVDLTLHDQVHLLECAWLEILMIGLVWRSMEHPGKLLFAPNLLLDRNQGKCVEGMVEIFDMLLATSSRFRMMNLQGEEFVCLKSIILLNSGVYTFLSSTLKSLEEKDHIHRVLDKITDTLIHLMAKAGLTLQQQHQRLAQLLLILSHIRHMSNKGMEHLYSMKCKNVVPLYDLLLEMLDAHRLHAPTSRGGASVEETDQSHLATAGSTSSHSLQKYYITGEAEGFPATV
Description: MCF-7 cells were adjusted to a concentration of 200,000 cells per mL in RPMI containing 10% charcoal-stripped FBS and 20 mM HEPES. 16 microliters of the cell suspension (3200 cells) was added to each well of a poly-D-lysine 384 well plate, and the cells were incubated overnight to allow the cells to adhere. The following day an eleven point, serial semilog dilution of each compound was added to the cells in 16 μL at a final concentration ranging from 0.3-0.000003 μM. At 4 or 24 hr post compound addition, the cells were fixed (10% formalin in PBS) for 20 minutes. Cells were permeablized in PBS 0.1% Triton and blocked with LICOR blocking buffer (50 μl/well, 90′). The wells were then incubated overnight at 4° C. with SP1 rabbit monoclonal Ab (Thermo Scientific) diluted 1:1000 in LICOR blocking buffer/0.1% Tween-20. Wells which were treated with blocking buffer with Tween but no antibody were used as a background control. Wells were washed with 0.1% Tween-20/PBS and then incubated in goat anti-rabbit IRDye™ 800 CW (LICOR Inc.; 1:10000) and DRAQ5 DNA dye (1:2000 for 2 mM stock) diluted in LICOR blocking buffer containing 0.1% Tween-20 and 0.01% SDS for 60 minutes. Cells were washed (50 μl/well, 5′ each) in 0.1% Tween-20/PBS. Plates were scanned on a LICOR Odyssey infrared imaging system. Integrated intensities in the 800 nm channel and 700 nm channel were measured to determine levels of ER and DNA respectively. Percent ER levels were determined as follows: (Integrated intensity 800 nm sample/integrated intensity 700 nm sample)/(Integrated intensity 800 nm untreated cells/integrated intensity 700 nm untreated cells)×100=% ER levels.

MCF-7 cells = assay: MCF7 Viability Assay (Breast Cancer Cell Viability Assay); format: cell-based; conditions: 5 days' compound exposure, CellTiter-Glo; for IC50: Homo sapiens, MCF7, 120 h
Description: MCF-7 cells were adjusted to a concentration of 20,000 cells per mL in RPMI containing 10% FBS and 20 mM HEPES. 16 microliters of the cell suspension (320 cells) was added to each well of a 384 well plate, and the cells were incubated overnight to allow the cells to adhere. The following day an eleven point, serial semilog dilution of each compound was added to the cells in 16 μL at a final concentration ranging from 0.3-0.000003 μM. After 5 days' compound exposure, 16 μL of CellTiter-GLo (Promega, Madison Wis.) was added to the cells, and the relative luminescence units (RLUs) of each well were determined. CellTiter-Glo added to 32 μL of medium without cells was used to obtain a background value. The Percent viability of each sample was determined as follows: (RLU sample-RLU background/RLU untreated cells-RLU background)×100=% viability.

Emax (ER-α) [%]	DC50 (ER-α) [µM]	IC50 (MCF-7 cells) [µM]	SMILES	MCF7 Viability Assay Max Response (MCF-7 cells)
≥ 40	≤ 0.1	≤ 0.1	CC/C(=C(/c1ccc(/C=C/C(=O)O)cc1)c1ccc(-c2cnn(C)c2)cc1)c1ccccc1 [Example 19, (E)-3-(4-((E)-1-(4-(1-Methyl-1H-pyrazol-4-yl)phenyl)-2-phenylbut-1-en-1-yl)phenyl)acrylic acid]	++ (++ = a single % value ≧ 40%)
≥ 40	≤ 0.1	≤ 0.1	CC/C(=C(/c1ccc(/C=C/C(=O)O)cc1)c1ccc(-c2cncs2)cc1F)c1ccccc1 [Example 20, (E)-3-(4-((E)-1-(2-Fluoro-4-(thiazol-5-yl)phenyl)-2-phenylbut-1-en-1-yl)phenyl)acrylic acid]	++ (++ = a single % value ≧ 40%)
≥ 40	≤ 0.1	≤ 0.1	CC/C(=C(/c1ccc(/C=C/C(=O)O)cc1)c1ccc(-c2cncs2)c(F)c1)c1ccccc1 [Example 21, (E)-3-(4-((E)-1-(3-Fluoro-4-(thiazol-5-yl)phenyl)-2-phenylbut-1-en-1-yl)phenyl)acrylic acid]	++ (++ = a single % value ≧ 40%)
≥ 40	≤ 0.1	≤ 0.1	CC/C(=C(/c1ccc(/C=C/C(=O)O)cc1)c1ccc(-c2cn[nH]c2)cc1)c1ccccc1 [Example 22, (E)-3-(4-((E)-1-(4-(1H-Pyrazol-4-yl)phenyl)-2-phenylbut-1-en-1-yl)phenyl)acrylic acid]	++ (++ = a single % value ≧ 40%)
≥ 40	≤ 0.1	> 0.1	CC/C(=C(/c1ccc(/C=C/C(=O)O)cc1)c1ccc(N2CCN(C)CC2)cc1)c1ccccc1 [Example 23, (E)-3-(4-((E)-1-(4-(4-Methylpiperazin-1-yl)phenyl)-2-phenylbut-1-en-1-yl)phenyl)acrylic acid]	++ (++ = a single % value ≧ 40%)
≥ 40	> 0.1	> 0.1	CC/C(=C(/c1ccc(/C=C/C(=O)O)cc1)c1ccc(N2CCCCC2)cc1)c1ccccc1 [Example 24, (E)-3-(4-((E)-2-Phenyl-1-(4-(piperidin-1-yl)phenyl)but-1-en-1-yl)phenyl)acrylic acid]	++ (++ = a single % value ≧ 40%)
≥ 40	> 0.1	> 0.1	O=C(O)/C=C/c1ccc(/C(=C(\c2ccccc2)C2CCC2)c2ccc(-c3cncs3)cn2)cc1 [Example 25, (E)-3-(4-((E)-2-Cyclobutyl-2-phenyl-1-(5-(thiazol-5-yl)pyridin-2-yl)vinyl)phenyl)acrylic acid]	++ (++ = a single % value ≧ 40%)
≥ 40	> 0.1	> 0.1	O=C(O)/C=C/c1ccc(/C(=C(\c2ccccc2)C2CCC2)c2cccc(-c3cn[nH]c3)c2)cc1 [Example 26, (E)-3-(4-((E)-1-(3-(1H-Pyrazol-4-yl)phenyl)-2-cyclobutyl-2-phenylvinyl)phenyl)acrylic acid]	+ (+ = a single % value < 40%)
≥ 40	≤ 0.1	≤ 0.1	O=C(O)/C=C/c1ccc(/C(=C(\c2ccccc2)C2CCC2)c2ccc(-c3ccon3)cc2)cc1 [Example 27, (E)-3-(4-((E)-2-Cyclobutyl-1-(4-(isoxazol-3-yl)phenyl)-2-phenylvinyl)phenyl)acrylic acid]	++ (++ = a single % value ≧ 40%)
≥ 40	≤ 0.1	≤ 0.1	CC/C(=C(/c1ccc(/C=C/C(=O)O)cc1)c1ccc(-c2cncs2)cc1)c1ccncc1Cl [Example 28, (E)-3-(4-((E)-2-(3-Chloropyridin-4-yl)-1-(4-(thiazol-5-yl)phenyl)but-1-en-1-yl)phenyl)acrylic acid]	++ (++ = a single % value ≧ 40%)
≥ 40	≤ 0.1	≤ 0.1	CC/C(=C(/c1ccc(/C=C/C(=O)O)cc1)c1ccc(-c2cncs2)cc1)c1ccccc1Cl [Example 29, (E)-3-(4-((E)-2-(2-Chlorophenyl)-1-(4-(thiazol-5-yl)phenyl)but-1-en-1-yl)phenyl)acrylic acid]	++ (++ = a single % value ≧ 40%)
≥ 40	≤ 0.1	≤ 0.1	CC/C(=C(/c1ccc(/C=C/C(=O)O)cc1)c1ccc(-c2cncs2)cc1)c1cccc(OC)c1 [Example 30, (E)-3-(4-((E)-2-(3-Methoxyphenyl)-1-(4-(thiazol-5-yl)phenyl)but-1-en-1-yl)phenyl)acrylic acid]	++ (++ = a single % value ≧ 40%)
≥ 40	≤ 0.1	≤ 0.1	CC/C(=C(/c1ccc(/C=C/C(=O)O)cc1)c1ccc(-c2cncs2)cc1)c1ccc2occc2c1 [Example 31, (E)-3-(4-((E)-2-(Benzofuran-5-yl)-1-(4-(thiazol-5-yl)phenyl)but-1-en-1-yl)phenyl)acrylic acid]	++ (++ = a single % value ≧ 40%)
≥ 40	≤ 0.1	≤ 0.1	CC/C(=C(/c1ccc(/C=C/C(=O)O)cc1)c1ccc(-c2cncs2)cc1)c1cscc1C [Example 32, (E)-3-(4-((E)-2-(4-Methylthiophen-3-yl)-1-(4-(thiazol-5-yl)phenyl)but-1-en-1-yl)phenyl)acrylic acid]	++ (++ = a single % value ≧ 40%)
≥ 40	≤ 0.1	≤ 0.1	O=C(O)/C=C/c1ccc(/C(=C(\c2ccc(F)cc2Cl)C2CCC2)c2ccc(-c3cncs3)cc2)cc1 [Example 33, (E)-3-(4-((E)-2-(2-Chloro-4-fluorophenyl)-2-cyclobutyl-1-(4-(thiazol-5-yl)phenyl)vinyl)phenyl)acrylic acid]	++ (++ = a single % value ≧ 40%)
≥ 40	≤ 0.1	≤ 0.1	O=C(O)/C=C/c1ccc(/C(=C(\c2ccncc2Cl)C2CCC2)c2ccc(-c3cncs3)cc2)cc1 [Example 34, (E)-3-(4-((E)-2-(3-Chloropyridin-4-yl)-2-cyclobutyl-1-(4-(thiazol-5-yl)phenyl)vinyl)phenyl)acrylic acid]	++ (++ = a single % value ≧ 40%)
≥ 40	≤ 0.1	≤ 0.1	Cc1cscc1/C(=C(\c1ccc(/C=C/C(=O)O)cc1)c1ccc(-c2cncs2)cc1)C1CCC1 [Example 35, (E)-3-(4-((E)-2-Cyclobutyl-2-(4-methylthiophen-3-yl)-1-(4-(thiazol-5-yl)phenyl)vinyl)phenyl)acrylic acid]	++ (++ = a single % value ≧ 40%)
≥ 40	≤ 0.1	≤ 0.1	O=C(O)/C=C/c1ccc(/C(=C(\c2ccc(F)cc2Cl)C2CCC2)c2ccc(N3CCOCC3)cc2)cc1 [Example 36, (E)-3-(4-((E)-2-(2-Chloro-4-fluorophenyl)-2-cyclobutyl-1-(4-morpholinophenyl)vinyl)phenyl)acrylic acid]	++ (++ = a single % value ≧ 40%)
